Literature values in PubChem BioAssay AID1259409 (Chemical Carcinogenesis Research Information System (CCRIS), 2018).

Tested on: rodent chemically induced tumor inhibition, incidence and multiplicity
Assay: CCRIS tumor inhibitor studies
Conditions: Carcinogen: 2,2'-DIHYDROXY-DI-N-PROPYLNITROSAMINE, 53609-64-6, 13147-25-6, Carcinogen: 2,2'-DIHYDROXY-DI-N-PROPYLNITROSAMINE, 53609-64-6, 13147-25-6, Dose [Inhibitor]: 0, Route [Inhibitor]: ORAL, Species: RAT, Strain/Sex: F344/MALE, Promoter: NONE USED

COc1cc(/C=C/C(=O)O[C@H]2CC[C@]34C[C@]35CC[C@]3(C)[C@@H]([C@H](C)CCC=C(C)C)CC[C@@]3(C)[C@@H]5CC[C@H]4C2(C)C)ccc1O
tumour outcome (control, treated, inhibition, significance) (N-ETHYL-N-HYDROXYETHYL- NITROSAMINE, 3,2'-DIMETHYL-4-, N-ETHYL-N-HYDROXYETHYL- NITROSAMINE, 3,2'-DIMETHYL-4-, 1% IN DIET BEGINNING 1 WK POST LAST CARCINOGEN DOSE AND CONTINUING FOR 32 WK (STUDY DURATION: 36 WK), Target Tissue: Type of Lesion: LIVER: HEPATOCELLULAR CARCINOMA, Dose [Carcinogen]: 1000 MG/KG IP DHPN 2X, 1500 MG/KG GAV EHEN 2X AND 75 MG/KG SC DMAB 3X GIVEN OVER THE INITIAL 3 WK PERIOD AT 3-4 D INTERV): 6/14 (43%), 3/13 (23%), 47%, not calculated | tumour outcome (control, treated, inhibition, significance) (N-ETHYL-N-HYDROXYETHYL- NITROSAMINE, 3,2'-DIMETHYL-4-, N-ETHYL-N-HYDROXYETHYL- NITROSAMINE, 3,2'-DIMETHYL-4-, 1% IN DIET BEGINNING 1 WK POST LAST CARCINOGEN DOSE AND CONTINUING FOR 32 WK (STUDY DURATION: 36 WK), Target Tissue: Type of Lesion: LUNG: ADENOMA, Dose [Carcinogen]: 1000 MG/KG IP DHPN 2X, 1500 MG/KG GAV EHEN 2X AND 75 MG/KG SC DMAB 3X GIVEN OVER THE INITIAL 3 WK PERIOD AT 3-4 D INTERV): 7/14 (50%), 11/13 (85%), -70%, not calculated | tumour outcome (control, treated, inhibition, significance) (N-ETHYL-N-HYDROXYETHYL- NITROSAMINE, 3,2'-DIMETHYL-4-, N-ETHYL-N-HYDROXYETHYL- NITROSAMINE, 3,2'-DIMETHYL-4-, 1% IN DIET BEGINNING 1 WK POST LAST CARCINOGEN DOSE AND CONTINUING FOR 32 WK (STUDY DURATION: 36 WK), Target Tissue: Type of Lesion: LUNG: CARCINOMA, Dose [Carcinogen]: 1000 MG/KG IP DHPN 2X, 1500 MG/KG GAV EHEN 2X AND 75 MG/KG SC DMAB 3X GIVEN OVER THE INITIAL 3 WK PERIOD AT 3-4 D INTERV): 1/14 (7%), 7/13 (54%), -671%, p<0.05 | outcome (N-ETHYL-N-HYDROXYETHYL- NITROSAMINE, 3,2'-DIMETHYL-4-, N-ETHYL-N-HYDROXYETHYL- NITROSAMINE, 3,2'-DIMETHYL-4-, 1% IN DIET BEGINNING 1 WK POST LAST CARCINOGEN DOSE AND CONTINUING FOR 32 WK (STUDY DURATION: 36 WK), Target Tissue: Type of Lesion: URINARY BLADDER: PAPILLOMA, Dose [Carcinogen]: 1000 MG/KG IP DHPN 2X, 1500 MG/KG GAV EHEN 2X AND 75 MG/KG SC DMAB 3X GIVEN OVER THE INITIAL 3 WK PERIOD AT 3-4 D INTERV): 0/14 (0%), 3/13 (23%), -100%, not calculated | tumour outcome (control, treated, inhibition, significance) (N-ETHYL-N-HYDROXYETHYLNITROSAMINE, 3,2'-DIMETHYL-4-AMINO-, N-ETHYL-N-HYDROXYETHYLNITROSAMINE, 3,2'-DIMETHYL-4-AMINO-, 1% IN DIET FOR 32 WK BEGINNING 1 WK POST CARCINOGEN TREATMENT (STUDY DURATION: 36 WK), Target Tissue: Type of Lesion: KIDNEY: ADENOMA, Dose [Carcinogen]: 1000 MG/KG BW DHPN TWICE , 1500 MG/KG BW EHEN TWICE, 75 MG/KG BW 3 TIMES ADMINISTERED OVER FIRST 3 WK): 6/14 (43%), 9/13 (69%), -60%, not significant | tumour outcome (control, treated, inhibition, significance) (N-ETHYL-N-HYDROXYETHYLNITROSAMINE, 3,2'-DIMETHYL-4-AMINO-, N-ETHYL-N-HYDROXYETHYLNITROSAMINE, 3,2'-DIMETHYL-4-AMINO-, 1% IN DIET FOR 32 WK BEGINNING 1 WK POST CARCINOGEN TREATMENT (STUDY DURATION: 36 WK), Target Tissue: Type of Lesion: KIDNEY: NEPHROBLASTOMA, Dose [Carcinogen]: 1000 MG/KG BW DHPN TWICE, 1500 MG/KG BW EHEN TWICE, 75 MG/KG BW 3 TIMES ADMINISTERED OVER FIRST 3 WK): 2/14 (14%), 0/13 (0%), 100%, not significant | tumour outcome (control, treated, inhibition, significance) (N-ETHYL-N-HYDROXYETHYLNITROSAMINE, 3,2'-DIMETHYL-4-AMINO-, N-ETHYL-N-HYDROXYETHYLNITROSAMINE, 3,2'-DIMETHYL-4-AMINO-, 1% IN DIET FOR 32 WK BEGINNING 1 WK POST CARCINOGEN TREATMENT (STUDY DURATION: 36 WK), Target Tissue: Type of Lesion: KIDNEY: TRANSITIONAL CELL CARCINOMA, Dose [Carcinogen]: 1000 MG/KG BW DHPN TWICE , 1500 MG/ KG BW EHEN TWICE, 75 MG/KG BW 3 TIMES ADMINISTERED OVER FIRST THREE WEEKS): 1/14 (7%), 2/13 (15%), -114%, not significant | tumour outcome (control, treated, inhibition, significance) (N-ETHYL-N-HYDROXYETHYLNITROSAMINE, 3,2'-DIMETHYL-4-AMINO-, N-ETHYL-N-HYDROXYETHYLNITROSAMINE, 3,2'-DIMETHYL-4-AMINO-, 1% IN DIET FOR 32 WK BEGINNING 1 WK POST CARCINOGEN TREATMENT (STUDY DURATION: 36 WK), Target Tissue: Type of Lesion: LARGE INTESTINE: CARCINOMA, Dose [Carcinogen]: 1000 MG/KG BW DHPN TWICE, 1500 MG/KG BW EHEN TWICE, 75 MG/KG BW 3 TIMES ADMINISTERED OVER 3 WK): 3/14 (21%), 6/13 (46%), -119%, not significant | tumour outcome (control, treated, inhibition, significance) (N-ETHYL-N-HYDROXYETHYLNITROSAMINE, 3,2'-DIMETHYL-4-AMINO-, N-ETHYL-N-HYDROXYETHYLNITROSAMINE, 3,2'-DIMETHYL-4-AMINO-, 1% IN DIET FOR 32 WK BEGINNING 1 WK POST CARCINOGEN TREATMENT (STUDY DURATION: 36 WK), Target Tissue: Type of Lesion: LIVER: HEPATOCELLULAR CARCINOMA, Dose [Carcinogen]: 1000 MG/KG BW DHPN TWICE , 1500 MG/KG BW EHEN TWICE 75 MG/KG BW 3 TIMES ADMINISTERED OVER FIRST 3 WK): 6/14 (43%), 3/13 (23%), 47%, not significant
